pIC50: −log10 of the molar value.
Biological target: Excitatory amino acid transporter 1 (Homo sapiens, UniProt P43003)
Experiment: Inhibition of human EAAT1 expressed in HEK293 cells by [3H]D-Asp uptake assay

Excitatory amino acid transporter 1, sequence (P43003 whole entry): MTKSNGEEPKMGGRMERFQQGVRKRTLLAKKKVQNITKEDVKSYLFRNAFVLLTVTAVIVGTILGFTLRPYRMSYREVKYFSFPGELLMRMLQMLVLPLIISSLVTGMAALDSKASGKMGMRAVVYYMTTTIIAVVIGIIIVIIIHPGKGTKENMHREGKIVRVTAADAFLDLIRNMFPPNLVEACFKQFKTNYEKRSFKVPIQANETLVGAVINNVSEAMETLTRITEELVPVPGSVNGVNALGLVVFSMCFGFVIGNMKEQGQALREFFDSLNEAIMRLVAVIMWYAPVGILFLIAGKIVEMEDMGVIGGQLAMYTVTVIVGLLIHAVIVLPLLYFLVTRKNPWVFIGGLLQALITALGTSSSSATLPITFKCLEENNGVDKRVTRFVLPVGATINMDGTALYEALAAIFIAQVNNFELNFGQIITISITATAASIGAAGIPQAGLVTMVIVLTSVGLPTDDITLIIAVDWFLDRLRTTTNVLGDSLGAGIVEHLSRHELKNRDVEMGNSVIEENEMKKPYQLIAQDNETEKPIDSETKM

Structure (SMILES)	pIC50
N#CC1C(=N)OC2=C(C(=O)O[C@H](c3ccccc3)C2)[C@@H]1c1ccccc1 (relative stereo) [anti-2-Amino-5-oxo-4,7-diphenyl-4,5,7,8-tetrahydropyrano[4,3-b]-pyran-3-carbonitril]	< 3.52
N#CC1C(=N)OC2=C(C(=O)N[C@H](c3ccccc3)C2)[C@@H]1c1ccccc1 (relative stereo) [anti-2-Amino-5-oxo-4,7-diphenyl-5,6,7,8-tetrahydro-4H-pyrano-[3,2-c]pyridine-3-carbonitrile]	< 3.50
N#CC1C(=N)OC2=C(C(=O)O[C@@H](c3ccccc3)C2)[C@@H]1c1ccccc1 (relative stereo) [syn-2-Amino-5-oxo-4,7-diphenyl-4,5,7,8-tetrahydropyrano[4,3-b]-pyran-3-carbonitrile]	< 3.52
N#CC1C(=N)OC2=C(C(=O)N[C@@H](c3ccccc3)C2)[C@@H]1c1ccccc1 (relative stereo) [syn-2-amino-5-oxo-4,7-diphenyl-5,6,7,8-tetrahydro-4H-pyrano[3,2-c]pyridine-3-carbonitrile]	< 3.52
CC1CC(=O)C2=C(C1)OC(=N)C(C#N)C2c1ccc2c(c1)OCO2 (stereo not drawn) [2-amino-4-(benzo[d][1,3]dioxol-5-yl)-7-methyl-5-oxo-5,6,7,8-tetrahydro-4H-chromene-3-carbonitrile]	< 3.50

Continued, values first:

pIC50	Structure (SMILES)
< 4.00	N=C1CC(c2ccccc2)C2=C(CC(c3ccccc3)CC2=O)O1 (stereo not drawn) [2-Amino-4,7-diphenyl-7,8-dihydro-4H-chromen-5(6H)-one]
< 4.00	N=C1OC2=C(C(=O)CC(c3ccccc3)C2)C(c2ccccc2)C1C(N)=O (stereo not drawn) [2-Amino-5-oxo-4,7-diphenyl-5,6,7,8-tetrahydro-4H-chromene-3-carboxamide]
< 3.52	COC(=O)C1C(=N)OC2=C(C(=O)CC(c3ccccc3)C2)C1c1ccccc1 (stereo not drawn) [Methyl2-Amino-5-oxo-4,7-diphenyl-5,6,7,8-tetrahydro-4Hchromene-3-carboxylate]
